The target of the experiment is T1, human cloned orexin-2 receptor (Homo sapiens, UniProt O43614).
T1 construct: expressed in transfected cells
T1 sequence (O43614 1-444): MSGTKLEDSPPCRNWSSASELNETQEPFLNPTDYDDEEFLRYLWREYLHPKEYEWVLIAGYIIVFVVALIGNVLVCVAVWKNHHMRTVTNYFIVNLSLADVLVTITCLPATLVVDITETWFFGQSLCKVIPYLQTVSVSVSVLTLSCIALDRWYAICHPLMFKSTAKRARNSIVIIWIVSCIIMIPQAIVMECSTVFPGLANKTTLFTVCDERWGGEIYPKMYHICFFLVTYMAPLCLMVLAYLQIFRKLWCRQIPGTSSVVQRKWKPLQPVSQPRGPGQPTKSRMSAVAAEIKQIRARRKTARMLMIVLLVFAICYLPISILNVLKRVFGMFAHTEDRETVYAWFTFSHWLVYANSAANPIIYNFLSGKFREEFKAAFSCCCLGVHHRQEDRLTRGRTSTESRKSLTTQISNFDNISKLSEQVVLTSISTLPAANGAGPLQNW
The experiment is described as follows: Determination of antagonist affinity at human Orexin-2 receptor using FLIPR ([Ca2+]i, CHO cells, hOrexin A at EC80). The experiment is classed as cell-based. The note with it: functional pKi from IC50 by modified Cheng-Prusoff, read-out: fpKi. The text has this:
Determination of Antagonist Affinity at Human Orexin-1 and 2 Receptors Using FLIPR
Adherent Chinese Hamster Ovary (CHO) cells, stably expressing the recombinant human Orexin-1 or human Orexin-2 receptors or Rat Basophilic Leukaemia Cells (RBL) stably expressing recombinant rat Orexin-1 or rat Orexin-2 receptors were maintained in culture in Alpha Minimum Essential Medium (Gibco/Invitrogen, cat. no.; 22571-020), supplemented with 10% decomplemented foetal bovine serum (Life Technologies, cat. no. 10106-078) and 400 μg/mL Geneticin G418 (Calbiochem, cat. no. 345810). Cells were grown as monolayers under 95%:5% air:CO2 at 37° C. […]
Compounds of the invention were tested in a final assay concentration range from 1.66×10^−5M to 1.58×10^−11M. […] This final concentration of hOrexin A was equivalent to the calculated EC80 for hOrexinA agonist potency in this test system. […]
The loaded cells were then incubated for 10 min at 37° C. with test compound. The plates were then placed into a FLIPR™ (Molecular Devices, UK) to monitor cell fluorescence (λex=488 nm, λEM=540 nm) (Sullivan E, Tucker E M, Dale I L. Measurement of [Ca^2]i using the fluometric imaging plate reader (FLIPR). In: Lambert DG (ed.), Calcium Signaling Protocols. New Jersey: Humana Press, 1999, 125-136). A baseline fluorescence reading was taken over a 5 to 10 second period, and then 10 μL of EC80 hOrexinA solution was added. […]

Regarding `CCOc1ccc(C)nc1C(=O)N1C[C@@H]2C[C@@H]2C[C@H]1COc1ncc(C(F)(F)F)cn1` [Example E4, (1R,4S,6R)-3-{[3-(ethyloxy)-6-methyl-2-pyridinyl]carbonyl}-4-({[5-(trifluoromethyl)-2-pyrimidinyl]oxy}methyl)-3-azabicyclo[4.1.0]heptane], the Ki is more than 15.8 µM.

Values taken from patent US20120040991A1, “3-AZABICYCLO [4.1.0] HEPTANES USED AS OREXIN ANTAGONISTS” (Glaxo Group Limited, priority 2009, published 2012).
